According to PMC5746282, “Polypyridylruthenium(II) complexes exert anti-schistosome activity and inhibit parasite acetylcholinesterases” (PLoS Neglected Tropical Diseases, 2017):
Like-named read-outs stand apart in the source and are kept apart here.

Legend:
[1] = test system: human bile duct cell line H69; experiment: MTT cytotoxicity assay; type: cell-based; settings: 0.1 μM, 72 h
[2] = test system: nucleotide pyrophosphatase-phosphodiesterase 5 (SmNPP-5); type: biochemical, S. mansoni; settings: 10 µM
[3] = molecular target: acetylcholinesterase (AChE); type: biochemical, S. mansoni
[4] = test system: acetylcholinesterase (AChE); type: biochemical, S. mansoni; settings: 1 µM
[5] = test system: alkaline phosphatase (AP); type: biochemical, S. mansoni; settings: 10 µM
[6] = molecular target: acetylcholinesterase (AChE); type: biochemical, S. haematobium

| Compound | cells killed [1] | SmNPP-5 Inhibition (%) [2] | IC50 [3] | AChE Inhibition (%) ([3]; 1 µM) | AChE Inhibition (%) [4] | AP Inhibition (%) [5] | IC50 [6] | AChE Inhibition (%) ([6]; 1 µM) |
| --- | --- | --- | --- | --- | --- | --- | --- | --- |
| COP(=O)(OC)OC=C(Cl)Cl [Dichlorvos, dichlorvos] | 100% |  |  |  |  |  |  |  |
| [Ru(phen)2(Me2bpy)]^2+ |  | 2% | 67 ± 11.6 µM | 9.3 ± 1.8% | 66.5 ± 5.8% | 3% | 90.2 ± 1.2 µM | 13.3 ± 1.8% |
